Common to all, as to assay: KINOMEscan competition binding
What all share (details): compound 10.0 µM

Test [1] deals with SLK (human) (UniProt Q9H2G2).
Test [2] has as its target CDC42BPG (human) (UniProt Q6DT37).
Test [3] concerns the target STK33 (human) (UniProt Q9BYT3).
The target in test [4] is TTK (human) (UniProt P33981).
The target in test [5] is GAK (human) (UniProt O14976).
Test [6] has as its target TNK1 (human) (UniProt Q13470).
The target of test [7] is ROS1 (human) (UniProt P08922).
The target of test [8] is LIMK2 (human) (UniProt P53671).
Test [9] deals with DCLK1 (human) (UniProt O15075).
The target of test [10] is PLK1 (human) (UniProt P53350).
For test [11], the target named is MAPK7 (human) (UniProt Q13164).
Test [12] deals with DCLK2 (human) (UniProt Q8N568).
Test [13] has as its target CAMKK2 (human) (UniProt Q96RR4).
For test [14], the target named is PLK3 (human) (UniProt Q9H4B4).
For test [15], the target named is MYLK (human) (UniProt Q15746).
Test [16] deals with SGK110 (human) (UniProt P0C264).
The target of test [17] is FYN (human) (UniProt P06241).
The target in test [18] is PLK4 (human) (UniProt O00444).
The target in test [19] is LCK (human) (UniProt P06239).
The target of test [20] is MINK1 (human) (UniProt Q8N4C8).
The target in test [21] is AURKC (human) (UniProt Q9UQB9).
Test [22] addresses CSNK1E (human) (UniProt P49674).
Test [23] has as its target PIP5K1A (human) (UniProt Q99755).
For test [24], the target named is RIOK1 (human) (UniProt Q9BRS2).
For test [25], the target named is MELK (human) (UniProt Q14680).
Test [26] deals with MYLK2 (human) (UniProt Q9H1R3).
In test [27] the target is SRPK3 (human) (UniProt Q9UPE1).
Test [28] concerns the target RPS6KA1 KD1 (human) (UniProt Q15418).
In test [29] the target is TYK2 JH1 catalytic (human) (UniProt P29597).
Test [30] deals with MYLK3 (human) (UniProt Q32MK0).
The target of test [31] is CSNK1G3 (human) (UniProt Q9Y6M4).
The target in test [32] is LATS2 (human) (UniProt Q9NRM7).
Test [33] addresses TYK2 JH2 pseudokinase (human) (UniProt P29597).
The target in test [34] is NEK9 (human) (UniProt Q8TD19).
Test [35] addresses RIOK2 (human) (UniProt Q9BVS4).
The target in test [36] is NLK (human) (UniProt Q9UBE8).
For test [37], the target named is IRAK3 (human) (UniProt Q9Y616).
For test [38], the target named is MAP4K4 (human) (UniProt O95819).
In test [39] the target is STK16 (human) (UniProt O75716).
Test [40] has as its target PIK3CG (human) (UniProt P48736).
In test [41] the target is AURKB (human) (UniProt Q96GD4).
In test [42] the target is TXK (human) (UniProt P42681).
Test [43] deals with NEK2 (human) (UniProt P51955).
The target of test [44] is PIP4K2B (human) (UniProt P78356).
The target in test [45] is AURKA (human) (UniProt O14965).
Test [46] deals with STK17A (human) (UniProt Q9UEE5).
The target in test [47] is NEK5 (human) (UniProt Q6P3R8).
The target in test [48] is CDK7 (human) (UniProt P50613).
Test [49] addresses ADCK4 (human) (UniProt Q96D53).
The target in test [50] is CSNK1D (human) (UniProt P48730).
Test [51] concerns the target ACVR1 (human) (UniProt Q04771).
Test [52] deals with MAP4K2 (human) (UniProt Q12851).
Test [53] concerns the target MYLK4 (human) (UniProt Q86YV6).
Test [54] has as its target BMP2K (human) (UniProt Q9NSY1).
The target of test [55] is MERTK (human) (UniProt Q12866).
The target in test [56] is RIOK3 (human) (UniProt O14730).
The target of test [57] is JAK2 JH1 catalytic (human) (UniProt O60674).
The target in test [58] is AAK1 (human) (UniProt Q2M2I8).
In test [59] the target is TNIK (human) (UniProt Q9UKE5).
In test [60] the target is MAP2K3 (human) (UniProt P46734).
Test [61] addresses PAK1 (human) (UniProt Q13153).
In test [62] the target is IGF1R (human) (UniProt P08069).
Test [63] concerns the target MYO3B (human) (UniProt Q8WXR4).
Test [64] concerns the target LATS1 (human) (UniProt O95835).

Chain of TNK1 (human) (Q13470 whole entry, looked up): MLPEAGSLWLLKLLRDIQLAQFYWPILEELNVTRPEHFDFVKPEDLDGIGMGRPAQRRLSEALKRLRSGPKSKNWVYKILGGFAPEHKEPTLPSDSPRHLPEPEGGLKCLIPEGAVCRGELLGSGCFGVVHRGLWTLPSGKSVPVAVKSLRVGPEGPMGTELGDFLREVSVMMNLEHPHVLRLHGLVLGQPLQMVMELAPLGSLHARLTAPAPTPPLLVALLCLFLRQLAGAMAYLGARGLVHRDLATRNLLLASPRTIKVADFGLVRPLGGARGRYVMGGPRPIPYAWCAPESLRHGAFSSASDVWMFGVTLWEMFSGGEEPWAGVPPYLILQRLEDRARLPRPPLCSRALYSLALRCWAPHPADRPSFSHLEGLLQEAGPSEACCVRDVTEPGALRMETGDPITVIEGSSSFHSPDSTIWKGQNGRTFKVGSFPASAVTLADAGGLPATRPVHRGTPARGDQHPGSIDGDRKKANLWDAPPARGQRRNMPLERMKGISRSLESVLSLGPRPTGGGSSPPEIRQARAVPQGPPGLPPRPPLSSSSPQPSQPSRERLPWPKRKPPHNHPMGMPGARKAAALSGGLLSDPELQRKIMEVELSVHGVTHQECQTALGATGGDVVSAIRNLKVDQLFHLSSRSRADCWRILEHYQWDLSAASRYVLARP
Chain of GAK (human) (O14976 whole entry, looked up): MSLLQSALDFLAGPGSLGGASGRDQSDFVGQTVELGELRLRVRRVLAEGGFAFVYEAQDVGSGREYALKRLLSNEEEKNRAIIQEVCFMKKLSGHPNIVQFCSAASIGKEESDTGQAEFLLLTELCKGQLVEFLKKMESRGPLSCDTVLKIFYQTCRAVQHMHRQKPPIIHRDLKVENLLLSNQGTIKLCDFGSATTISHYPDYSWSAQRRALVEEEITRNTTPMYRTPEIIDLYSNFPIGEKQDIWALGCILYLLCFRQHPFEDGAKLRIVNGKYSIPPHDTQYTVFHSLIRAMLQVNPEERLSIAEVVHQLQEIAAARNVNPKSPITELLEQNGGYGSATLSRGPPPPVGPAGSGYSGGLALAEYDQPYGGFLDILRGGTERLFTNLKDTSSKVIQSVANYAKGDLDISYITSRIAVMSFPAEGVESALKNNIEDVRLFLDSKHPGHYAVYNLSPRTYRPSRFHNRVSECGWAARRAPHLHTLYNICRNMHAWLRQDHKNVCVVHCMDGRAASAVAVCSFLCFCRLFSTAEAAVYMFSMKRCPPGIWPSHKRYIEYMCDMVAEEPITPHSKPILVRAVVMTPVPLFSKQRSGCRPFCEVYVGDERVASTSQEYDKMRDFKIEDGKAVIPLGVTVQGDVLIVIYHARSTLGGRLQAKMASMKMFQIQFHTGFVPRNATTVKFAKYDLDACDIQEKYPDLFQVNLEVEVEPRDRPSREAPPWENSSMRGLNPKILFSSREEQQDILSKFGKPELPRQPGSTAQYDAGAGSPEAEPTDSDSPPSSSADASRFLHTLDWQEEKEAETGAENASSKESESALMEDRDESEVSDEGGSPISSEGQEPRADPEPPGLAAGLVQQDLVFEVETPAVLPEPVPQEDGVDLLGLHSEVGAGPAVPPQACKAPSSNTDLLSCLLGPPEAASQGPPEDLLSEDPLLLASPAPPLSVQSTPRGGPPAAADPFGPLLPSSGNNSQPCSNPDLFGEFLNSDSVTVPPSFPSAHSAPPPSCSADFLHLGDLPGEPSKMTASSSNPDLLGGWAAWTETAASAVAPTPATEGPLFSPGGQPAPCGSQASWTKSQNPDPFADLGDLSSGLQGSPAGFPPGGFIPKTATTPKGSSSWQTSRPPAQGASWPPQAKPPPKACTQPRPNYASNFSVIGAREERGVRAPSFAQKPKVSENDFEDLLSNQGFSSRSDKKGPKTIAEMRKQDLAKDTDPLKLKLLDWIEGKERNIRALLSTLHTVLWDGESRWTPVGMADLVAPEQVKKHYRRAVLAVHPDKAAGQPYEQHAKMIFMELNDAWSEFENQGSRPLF
Chain of TTK (human) (P33981 whole entry, looked up): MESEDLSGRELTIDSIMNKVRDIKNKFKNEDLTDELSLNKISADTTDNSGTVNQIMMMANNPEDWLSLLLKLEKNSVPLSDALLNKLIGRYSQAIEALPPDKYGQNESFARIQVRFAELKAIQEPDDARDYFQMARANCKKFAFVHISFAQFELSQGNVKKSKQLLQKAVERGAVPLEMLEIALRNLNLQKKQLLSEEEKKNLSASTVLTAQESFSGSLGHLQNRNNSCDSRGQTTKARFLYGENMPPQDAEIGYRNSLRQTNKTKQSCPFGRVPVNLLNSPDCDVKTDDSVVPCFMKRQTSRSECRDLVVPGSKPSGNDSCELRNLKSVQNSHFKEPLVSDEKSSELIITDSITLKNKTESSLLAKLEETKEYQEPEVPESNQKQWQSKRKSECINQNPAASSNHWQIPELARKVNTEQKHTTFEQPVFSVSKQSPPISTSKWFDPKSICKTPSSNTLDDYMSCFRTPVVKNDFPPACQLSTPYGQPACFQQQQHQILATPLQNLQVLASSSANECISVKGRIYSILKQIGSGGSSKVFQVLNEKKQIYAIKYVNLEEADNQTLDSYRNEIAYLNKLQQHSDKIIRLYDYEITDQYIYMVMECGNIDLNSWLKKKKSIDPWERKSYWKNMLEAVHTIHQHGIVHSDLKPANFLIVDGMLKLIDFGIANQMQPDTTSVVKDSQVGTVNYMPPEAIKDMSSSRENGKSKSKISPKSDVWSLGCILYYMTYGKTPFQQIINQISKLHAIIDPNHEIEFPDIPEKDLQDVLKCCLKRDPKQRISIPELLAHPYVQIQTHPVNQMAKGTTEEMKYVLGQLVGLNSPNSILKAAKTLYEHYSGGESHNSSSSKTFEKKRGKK
Chain of PLK3 (human) (Q9H4B4 whole entry, looked up): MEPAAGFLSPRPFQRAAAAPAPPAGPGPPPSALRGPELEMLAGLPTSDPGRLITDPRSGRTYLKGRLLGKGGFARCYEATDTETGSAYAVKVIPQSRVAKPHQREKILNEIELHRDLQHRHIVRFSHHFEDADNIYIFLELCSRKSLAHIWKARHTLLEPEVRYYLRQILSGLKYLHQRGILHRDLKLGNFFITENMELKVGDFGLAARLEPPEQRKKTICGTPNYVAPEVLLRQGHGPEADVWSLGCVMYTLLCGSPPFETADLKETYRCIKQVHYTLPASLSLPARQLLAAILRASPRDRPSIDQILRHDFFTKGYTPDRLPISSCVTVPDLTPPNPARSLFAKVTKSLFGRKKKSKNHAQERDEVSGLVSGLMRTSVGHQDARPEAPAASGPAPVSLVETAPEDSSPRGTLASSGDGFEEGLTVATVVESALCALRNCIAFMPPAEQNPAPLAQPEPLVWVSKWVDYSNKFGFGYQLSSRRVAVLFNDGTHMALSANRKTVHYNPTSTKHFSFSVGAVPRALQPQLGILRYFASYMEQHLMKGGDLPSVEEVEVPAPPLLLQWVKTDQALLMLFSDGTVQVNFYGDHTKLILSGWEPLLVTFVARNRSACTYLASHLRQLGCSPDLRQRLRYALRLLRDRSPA
Chain of MAPK7 (human) (Q13164 whole entry, looked up): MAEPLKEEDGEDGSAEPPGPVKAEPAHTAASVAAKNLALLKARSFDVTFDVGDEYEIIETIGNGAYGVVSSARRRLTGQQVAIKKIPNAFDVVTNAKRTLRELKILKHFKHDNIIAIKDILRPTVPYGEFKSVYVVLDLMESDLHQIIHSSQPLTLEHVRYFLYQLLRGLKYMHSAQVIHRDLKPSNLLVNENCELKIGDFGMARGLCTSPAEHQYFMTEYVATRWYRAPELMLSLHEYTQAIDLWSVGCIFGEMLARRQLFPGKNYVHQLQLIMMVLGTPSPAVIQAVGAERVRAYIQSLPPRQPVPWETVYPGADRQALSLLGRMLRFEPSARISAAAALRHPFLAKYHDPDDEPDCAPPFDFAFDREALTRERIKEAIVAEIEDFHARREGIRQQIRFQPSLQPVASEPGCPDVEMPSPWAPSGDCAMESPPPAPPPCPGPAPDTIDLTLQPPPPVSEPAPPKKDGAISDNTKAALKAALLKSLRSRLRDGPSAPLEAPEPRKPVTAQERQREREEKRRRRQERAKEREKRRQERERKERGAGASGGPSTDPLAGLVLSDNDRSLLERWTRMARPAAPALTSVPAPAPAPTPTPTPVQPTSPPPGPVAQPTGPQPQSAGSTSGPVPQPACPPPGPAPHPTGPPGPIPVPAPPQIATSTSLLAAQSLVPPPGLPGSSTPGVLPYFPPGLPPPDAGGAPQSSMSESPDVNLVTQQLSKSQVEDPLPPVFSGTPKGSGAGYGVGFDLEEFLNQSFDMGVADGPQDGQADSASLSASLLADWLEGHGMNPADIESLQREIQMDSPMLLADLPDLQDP
Chain of PLK1 (human) (P53350 whole entry, looked up): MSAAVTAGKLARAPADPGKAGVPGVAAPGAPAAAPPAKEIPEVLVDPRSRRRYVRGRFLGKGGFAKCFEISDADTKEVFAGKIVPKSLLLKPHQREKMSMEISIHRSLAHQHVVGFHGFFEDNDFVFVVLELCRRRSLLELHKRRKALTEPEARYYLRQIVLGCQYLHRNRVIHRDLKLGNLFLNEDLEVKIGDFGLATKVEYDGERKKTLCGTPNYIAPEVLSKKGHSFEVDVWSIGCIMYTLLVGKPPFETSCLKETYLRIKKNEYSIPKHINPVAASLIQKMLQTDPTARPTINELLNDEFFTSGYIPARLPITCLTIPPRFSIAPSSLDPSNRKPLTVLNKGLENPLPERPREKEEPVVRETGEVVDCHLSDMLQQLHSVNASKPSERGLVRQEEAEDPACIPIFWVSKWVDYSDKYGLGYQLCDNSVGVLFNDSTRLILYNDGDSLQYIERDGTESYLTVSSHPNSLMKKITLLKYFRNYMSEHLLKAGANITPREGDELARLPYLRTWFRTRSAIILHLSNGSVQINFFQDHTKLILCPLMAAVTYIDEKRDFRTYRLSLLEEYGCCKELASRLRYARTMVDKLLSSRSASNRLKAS

As to `COc1cc(C(=O)NC2CCN(C)CC2)ccc1Nc1ncc2c(n1)N(C1CCCC1)[C@@H]1CCC[C@@H]1C(=O)N2C`, the kinase still bound, per cent of control in test [1] came to 5.8%; in test [2], 12%; in test [3] it was 11%; in test [4], 28%; in test [5], 13%; in [6], 21%. Moreover, the kinase still bound, per cent of control in test [7] worked out at 31%; in test [8] it was 8.3%; in test [9] it was 2.4%; in test [10], 15%; in test [11], 0.6%; in test [12], 2.8%. Also, the kinase still bound, per cent of control turned out to be 22% in test [13], 0% in test [14] and 2.6% in [15].
As for `CN1C(=O)[C@H]2CCC[C@H]2N(C2CCCC2)c2nc(Nc3ccc4ncccc4c3)ncc21`, the kinase still bound, per cent of control in test [16] is 30%; in test [17], 34%; in test [1] it was 18%; in test [18], 1.9%; in test [19], 19%; in test [20], 1.6%. Besides, the kinase still bound, per cent of control in [21] amounted to 4.6%; in [22], 0.15%; in test [23], 19%; in test [24] it was 7.2%; in test [25] it was 26%; in test [26], 8.3%. Besides, the kinase still bound, per cent of control in test [27] is 20%; in [28], 27%; in [4], 26%; in [29], 25%; in [5], 1.8%; in [30], 7.6%. The kinase still bound, per cent of control in [31] was 20%; in test [6] it was 1.6%; in [32] it was 14%; in test [33] it was 31%; in test [34], 30%; in test [35], 0.35%. Also, the kinase still bound, per cent of control in [36] came out at 12%; in [37], 16%; in test [38], 0.8%; in test [39], 2.2%; in [40], 34%; in test [41], 21%. Moreover, the kinase still bound, per cent of control in test [42] was found to be 34%; in test [43] it was 31%; in test [44] it was 13%; in test [9] it was 12%; in test [45] it was 11%; in test [46], 3.3%. Further, the kinase still bound, per cent of control was 11% in test [47]; 30% in test [48]; 10% in [49]; 4.3% in test [50]; 16% in [51]; 0.25% in test [10]. Further, the kinase still bound, per cent of control in test [11] stood at 0.25%; in [52], 23%; in test [53] it was 33%; in [14], 10%; in [54], 2.1%; in test [55] it was 28%. Moreover, the kinase still bound, per cent of control in [56] worked out at 7.6%; in test [57], 15%; in [58], 12%; in [59] it was 14%.
As for `O=C1NC(=O)C(=Cc2ccc(-c3ccc([N+](=O)[O-])cc3)o2)C(=O)N1`, the kinase still bound, per cent of control in test [60] stood at 15%; in [61] it was 17%; in [62] it was 34%; in test [63] it was 28%; in [64] it was 0%.

The values are drawn from the kinase profiling compilation of Christmann-Franck et al. (2016).
